Experimental findings from patent publication US11274111B2, “Arginase inhibitors and methods of use” (Merck Sharp & Dohme Corp., priority 2018, dated 2022) are described below.

Read-outs that look alike come from different tables or passages of the source.

The target of this assay is T1, Arginase (Homo sapiens, UniProt P05089).
T1 construct: Arginase protein was recombinantly expressed in Escherichia coli
T1 sequence (P05089 1-322): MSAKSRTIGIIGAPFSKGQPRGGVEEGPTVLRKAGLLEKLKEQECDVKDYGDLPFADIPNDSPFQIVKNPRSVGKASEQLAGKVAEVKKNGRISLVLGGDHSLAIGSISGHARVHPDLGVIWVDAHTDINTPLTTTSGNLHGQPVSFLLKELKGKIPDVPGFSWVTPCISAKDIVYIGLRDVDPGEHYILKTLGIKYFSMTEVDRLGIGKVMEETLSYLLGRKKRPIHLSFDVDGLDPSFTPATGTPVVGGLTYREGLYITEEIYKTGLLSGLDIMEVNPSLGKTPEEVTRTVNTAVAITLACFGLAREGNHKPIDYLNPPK
Briefly: Arginase Thioornithine Generating Assay (TOGA). Format: biochemical. The following applies: for IC50: recombinant arginase 1.88 nM, thioarginine substrate; for inhibition at 16 µM: Top Dose 16000 nM. How it is done: Arginase Thioornithine Generating Assay (TOGA)
Compounds were serially diluted in ten 3-fold steps in DMSO starting from 10 mM DMSO stocks. Compound dilutions or DMSO alone were then dispensed from the dilution plate into a Greiner black 384-well assay plate (catalog #781086) using an Echo 555 acoustic liquid handler (Labcyte).
Arginase protein was recombinantly expressed in Escherichia coli. Purified protein was then diluted in assay buffer (50 mM Tris pH 7.5, 50 mM NaCl, 1 mM manganese chloride, 0.05% bovine serum albumin to obtain a final Arginase concentration of 1.88 nM. Arginase solution (20 μL) or buffer alone (20 μL) were dispensed to wells of the assay plate using a BioRAPTR liquid dispenser (Beckman Coulter). Assay plates containing compound and arginase enzyme were incubated at room temperature for 30 minutes. Afterwards, 5 μL of 2.5 mM thioarginine (Cayman Chemicals) in assay buffer were added to each well of the assay plate using a BioRAPTR liquid dispenser. Plates were incubated at room temperature for 60 minutes and reactions were quenched by addition of 15 μL of 200 uM 7-Diethylamine-3-(4-maleimidophenyl)-4-methylcoumarin (Sigma Chemical) in 70% ethanol. Plates were briefly shaken to mix and the fluorescence was measured in an Spectramax plate reader (Molecular Devices) with a 410 nm excitation wavelength and an 490 nm emission wavelength.
Potencies were calculated by […] to the four parameter logistic IC50 equation.

Setting [1] is: Top Dose 10000 nM, read-out: Percent Inhibition at Top Dose.
[2] abbreviates: read-out: Percent Inhibition at Top Dose.

What is called IC50 is the point on the concentration scale where inhibition reaches its midpoint. “(1S,2S,3aR,4S,5S,6aS)-2-amino-1-(3-boronopropyl)-4-fluoro-5-(methylamino)octahydropentalene-2-carboxylate [Example 55b]”: the IC50 came out at 14.3 nM. Further, the “Percent Inhibition at Top Dose” value (Top Dose 10000 nM) is 101.7%.
One may read the inhibition as the percentage by which the read-out fell short of the control. Take `N[C@@]1(C(=O)O)C[C@H]2CN(CC(F)(F)F)C[C@H]2[C@@H]1CCCB(O)O` [Example 10, (3aR,4S,5S,6aR)-5-amino-4-(3-boronopropyl)-2-(2,2,2-trifluoroethyl)octahydrocyclopenta[c]pyrrole-5-carboxylic acid]: the IC50 stood at 5270 nM. Also, the inhibition at 10 µM under setting [1] stood at 55.9%.
For `N[C@@]1(C(=O)O)C[C@H]2C[C@@H](NCCO)C[C@H]2[C@@H]1CCCB(O)O` [Example 48, (1S,2S,3aR,5R,6aR)-2-amino-1-(3-boronopropyl)-5-((2-hydroxyethyl)amino)octahydropentalene-2-carboxylic acid], the inhibition at 10 µM under setting [1] is 98.4%.
The same measure, in the same setting: the same measure for `NC1(C(=O)O)CC2(CCNC2)OC1CCCB(O)O` (stereo not shown) [Example 41, 3-amino-2-(3-boronopropyl)-1-oxa-7-azaspiro[4.4]nonane-3-carboxylic acid]: 97.7%.
Same read-out and setting: the same measure for `NC1(C(=O)O)CC2CCCC2C1CCCB(O)O` (stereo not shown) [Example 34a, 2-amino-1-(3-boronopropyl)octahydropentalene-2-carboxylic acid]: 22.2%.
For the compound `N[C@@]1(C(=O)O)C[C@H]2C[C@H](O)C[C@H]2[C@@H]1CCCB(O)O` [Example 44b, (1S,2S,3aS,5S,6aR)-2-amino-1-(3-boronopropyl)-5-hydroxyoctahydropentalene-2-carboxylic acid], the IC50 was found to be 178 nM. Further, under setting [1], the inhibition at 10 µM stood at 97.4%.
For the compound `CN(C)CC(=O)N1C[C@@H]2CC(N)(C(=O)O)C(CCCB(O)O)[C@@H]2C1` (stereo in doubt) [Example 19, 5-amino-4-(3-boronopropyl)-2-(2-(dimethylamino)acetyl)octahydrocyclopenta[c]pyrrole-5-carboxylic acid], the inhibition at 16 µM under setting [2] is 82.7%.
On the same count and under the same terms, the same measure for `N[C@@]1(C(=O)O)C[C@H]2CNC[C@H]2[C@@H]1CCCB(O)O` [Example 1f, (3aR,4S,5S,6aR)-5-amino-4-(3-boronopropyl)octahydrocyclopenta[c]pyrrole-5-carboxylic acid]: 87.8%.
For the compound `NC1(C(=O)O)C(CCCB(O)O)C[C@H]2C[C@H]21` (relative stereo) [Example 36a, rel-(1R,5R)-2-amino-3-(3-boronopropyl)bicyclo[3.1.0]hexane-2-carboxylic acid], under setting [1], the inhibition at 10 µM is 93%.
`NC1(C(=O)O)C(CCCB(O)O)C[C@H]2NCC[C@H]21` (mixture of isomers) [Example 20f, (3aR,6aR)-4-amino-5-(3-boronopropyl)octahydrocyclopenta[b]pyrrole-4-carboxylic acid]: the inhibition at 10 µM (read-out: Percent Inhibition at Top Dose, Top Dose 10000 nM) was 99.2%.
Regarding `NC1(C(=O)O)CC2(CNC2)CC1CCCB(O)O` (stereo not shown) [Example 35a, 6-amino-7-(3-boronopropyl)-2-azaspiro[3.4]octane-6-carboxylic acid], the IC50 was 237 nM. Under setting [1], the inhibition at 10 µM came out at 99.7%.
Turning to `NCC(=O)N1C[C@@H]2CC(N)(C(=O)O)C(CCCB(O)O)[C@@H]2C1` (stereo in doubt) [Example 16, 5-amino-2-(2-aminoacetyl)-4-(3-boronopropyl)octahydrocyclopenta[c]pyrrole-5-carboxylic acid], the inhibition at 10 µM under setting [1] stood at 97.9%.
Turning to `NC1(C(=O)O)C(CCCB(O)O)CC2NCCCC21` (stereo not shown) [Example 40, 5-amino-6-(3-boronopropyl)octahydro-1H-cyclopenta[b]pyridine-5-carboxylic acid], under setting [1], the inhibition at 10 µM is 91.4%.
In the case of `C[C@H](N)C(=O)N1C[C@@H]2C[C@@](N)(C(=O)O)[C@@H](CCCB(O)O)[C@@H]2C1` [Example 4, (3aR,4S,5S,6aR)-2-(L-alanyl)-5-amino-4-(3-boronopropyl)octahydrocyclopenta[c]pyrrole-5-carboxylic acid], the IC50 came out at 108 nM. Also, the inhibition at 10 µM under setting [1] was 97.4%.
